Legend:
[1] = molecular target: Serine/threonine-protein kinase MAK (Homo sapiens) (UniProt P20794); conditions: Compound concentration 1000.0 nM
[2] = molecular target: TRAF2 and NCK-interacting protein kinase (Homo sapiens) (UniProt Q9UKE5); conditions: Compound concentration 1000.0 nM
[3] = molecular target: Casein kinase I isoform gamma-1 (Homo sapiens) (UniProt Q9HCP0); conditions: Compound concentration 1000.0 nM
[4] = molecular target: Receptor tyrosine-protein kinase erbB-4 (Homo sapiens) (UniProt Q15303); conditions: Compound concentration 1000.0 nM
[5] = molecular target: D(1B) dopamine receptor (Homo sapiens) (UniProt P21918); conditions: Compound concentration 10.0 uM
[6] = molecular target: Cyclin-dependent kinase 3 (Homo sapiens) (UniProt Q00526); conditions: Compound concentration 1000.0 nM
[7] = molecular target: Dual specificity mitogen-activated protein kinase kinase 4 (Homo sapiens) (UniProt P45985); conditions: Compound concentration 1000.0 nM
[8] = system: Epidermal growth factor receptor (Homo sapiens), P00533 [G719S]; conditions: Compound concentration 1000.0 nM
[9] = molecular target: Phosphatidylinositol 5-phosphate 4-kinase type-2 beta (Homo sapiens) (UniProt P78356); conditions: Compound concentration 1000.0 nM
[10] = molecular target: Testis-specific serine/threonine-protein kinase 1 (Homo sapiens) (UniProt Q9BXA7); conditions: Compound concentration 1000.0 nM
[11] = molecular target: Serine/threonine-protein kinase PAK 5 (Homo sapiens) (UniProt Q9P286); conditions: Compound concentration 1000.0 nM
[12] = molecular target: RAC-gamma serine/threonine-protein kinase (Homo sapiens) (UniProt Q9Y243); conditions: Compound concentration 1000.0 nM
[13] = system: Mast/stem cell growth factor receptor Kit (Homo sapiens), P10721 [V559D,T670I]; conditions: Compound concentration 1000.0 nM
[14] = molecular target: Serine/threonine-protein kinase B-raf (Homo sapiens) (UniProt P15056); conditions: Compound concentration 1000.0 nM
[15] = molecular target: T1, Ephrin type-B receptor 3 (Homo sapiens) (UniProt P54753); conditions: Compound concentration 1000.0 nM
T1 sequence (whole entry): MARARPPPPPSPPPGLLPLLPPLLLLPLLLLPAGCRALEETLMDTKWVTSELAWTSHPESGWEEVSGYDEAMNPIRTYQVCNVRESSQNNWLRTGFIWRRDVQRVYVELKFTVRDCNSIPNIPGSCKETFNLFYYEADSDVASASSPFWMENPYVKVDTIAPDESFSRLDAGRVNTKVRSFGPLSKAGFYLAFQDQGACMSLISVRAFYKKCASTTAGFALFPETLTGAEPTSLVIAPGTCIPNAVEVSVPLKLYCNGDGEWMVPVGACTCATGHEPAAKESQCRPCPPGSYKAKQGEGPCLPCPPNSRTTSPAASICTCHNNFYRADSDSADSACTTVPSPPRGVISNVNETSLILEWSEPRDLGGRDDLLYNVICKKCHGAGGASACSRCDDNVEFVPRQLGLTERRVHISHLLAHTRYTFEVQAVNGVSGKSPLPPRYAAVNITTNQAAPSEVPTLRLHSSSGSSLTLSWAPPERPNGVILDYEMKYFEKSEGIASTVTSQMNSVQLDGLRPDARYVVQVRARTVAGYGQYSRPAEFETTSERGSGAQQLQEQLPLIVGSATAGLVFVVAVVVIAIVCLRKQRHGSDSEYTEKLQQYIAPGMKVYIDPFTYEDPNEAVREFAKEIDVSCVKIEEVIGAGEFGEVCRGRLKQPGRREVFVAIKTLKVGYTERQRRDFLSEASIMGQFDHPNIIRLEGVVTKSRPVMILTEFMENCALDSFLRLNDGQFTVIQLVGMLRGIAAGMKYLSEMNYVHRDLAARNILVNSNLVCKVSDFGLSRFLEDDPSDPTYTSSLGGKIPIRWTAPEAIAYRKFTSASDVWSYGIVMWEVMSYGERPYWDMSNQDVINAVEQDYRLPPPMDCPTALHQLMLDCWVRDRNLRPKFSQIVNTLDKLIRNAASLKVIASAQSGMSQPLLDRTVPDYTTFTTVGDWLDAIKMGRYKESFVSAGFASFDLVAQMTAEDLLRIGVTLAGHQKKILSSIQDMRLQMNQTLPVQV

[16] = molecular target: Serine/threonine-protein kinase MRCK alpha (Homo sapiens) (UniProt Q5VT25); conditions: Compound concentration 1000.0 nM
[17] = system: Mast/stem cell growth factor receptor Kit (Homo sapiens), P10721 [V559D,V654A]; conditions: Compound concentration 1000.0 nM
[18] = molecular target: Tyrosine-protein kinase Fer (Homo sapiens) (UniProt P16591); conditions: Compound concentration 1000.0 nM
[19] = molecular target: Kappa-type opioid receptor (Homo sapiens) (UniProt P41145); conditions: Compound concentration 10.0 uM
[20] = molecular target: T2, Serine/threonine-protein kinase Sgk3 (Homo sapiens) (UniProt Q96BR1); conditions: Compound concentration 1000.0 nM
T2 sequence (whole entry): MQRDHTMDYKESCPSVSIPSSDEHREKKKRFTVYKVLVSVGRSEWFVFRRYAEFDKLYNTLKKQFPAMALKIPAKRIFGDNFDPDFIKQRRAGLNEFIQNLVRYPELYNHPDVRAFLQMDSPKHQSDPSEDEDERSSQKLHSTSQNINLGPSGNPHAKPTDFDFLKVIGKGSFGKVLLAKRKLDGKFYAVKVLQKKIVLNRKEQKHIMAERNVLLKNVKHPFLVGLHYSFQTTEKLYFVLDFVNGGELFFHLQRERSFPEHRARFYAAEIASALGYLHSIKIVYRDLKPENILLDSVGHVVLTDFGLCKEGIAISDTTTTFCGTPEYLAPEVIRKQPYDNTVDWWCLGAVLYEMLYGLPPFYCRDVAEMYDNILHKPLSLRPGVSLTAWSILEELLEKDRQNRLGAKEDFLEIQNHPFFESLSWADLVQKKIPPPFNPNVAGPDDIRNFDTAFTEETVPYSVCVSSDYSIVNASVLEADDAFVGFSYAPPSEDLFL

[21] = molecular target: Phosphatidylinositol 4-phosphate 3-kinase C2 domain-containing subunit beta (Homo sapiens) (UniProt O00750); conditions: Compound concentration 1000.0 nM
[22] = system: Phosphatidylinositol 4,5-bisphosphate 3-kinase catalytic subunit alpha isoform (Homo sapiens), P42336 [E545K]; conditions: Compound concentration 1000.0 nM
[23] = system: Phosphatidylinositol 4,5-bisphosphate 3-kinase catalytic subunit alpha isoform (Homo sapiens), P42336 [E542K]; conditions: Compound concentration 1000.0 nM
Phosphatidylinositol 4,5-bisphosphate 3-kinase catalytic subunit alpha isoform (Homo sapiens), P42336 [E542K], sequence (P42336 whole entry E542K, canonical isoform): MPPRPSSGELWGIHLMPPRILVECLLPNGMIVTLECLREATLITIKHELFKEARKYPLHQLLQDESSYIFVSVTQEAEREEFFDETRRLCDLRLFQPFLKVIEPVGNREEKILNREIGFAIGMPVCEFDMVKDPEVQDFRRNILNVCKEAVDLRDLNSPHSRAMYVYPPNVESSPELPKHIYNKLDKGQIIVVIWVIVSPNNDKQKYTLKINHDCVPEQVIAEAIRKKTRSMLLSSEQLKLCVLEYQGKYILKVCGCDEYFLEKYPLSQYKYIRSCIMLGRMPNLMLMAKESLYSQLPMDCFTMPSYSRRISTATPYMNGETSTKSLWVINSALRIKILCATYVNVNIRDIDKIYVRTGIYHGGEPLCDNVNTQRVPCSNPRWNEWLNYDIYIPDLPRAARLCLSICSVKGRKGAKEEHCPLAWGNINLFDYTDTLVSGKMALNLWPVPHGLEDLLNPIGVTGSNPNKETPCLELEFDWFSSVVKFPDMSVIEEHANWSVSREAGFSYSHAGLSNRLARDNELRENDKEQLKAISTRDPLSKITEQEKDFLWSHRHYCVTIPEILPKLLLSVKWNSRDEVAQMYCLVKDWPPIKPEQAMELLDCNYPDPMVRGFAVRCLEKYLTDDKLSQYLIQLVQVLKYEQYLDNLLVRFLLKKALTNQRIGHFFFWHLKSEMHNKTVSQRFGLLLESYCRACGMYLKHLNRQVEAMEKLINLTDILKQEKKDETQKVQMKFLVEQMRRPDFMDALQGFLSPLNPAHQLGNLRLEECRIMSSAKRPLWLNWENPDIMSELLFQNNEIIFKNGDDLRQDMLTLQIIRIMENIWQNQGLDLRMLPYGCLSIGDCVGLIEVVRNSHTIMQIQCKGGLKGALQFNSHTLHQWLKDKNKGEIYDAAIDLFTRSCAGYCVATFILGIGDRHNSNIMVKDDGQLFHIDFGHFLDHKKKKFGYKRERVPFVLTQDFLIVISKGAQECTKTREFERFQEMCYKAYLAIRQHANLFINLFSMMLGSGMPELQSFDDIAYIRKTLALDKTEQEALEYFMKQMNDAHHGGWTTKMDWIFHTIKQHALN

Phosphatidylinositol 5-phosphate 4-kinase type-2 beta (Homo sapiens), sequence (P78356 whole entry): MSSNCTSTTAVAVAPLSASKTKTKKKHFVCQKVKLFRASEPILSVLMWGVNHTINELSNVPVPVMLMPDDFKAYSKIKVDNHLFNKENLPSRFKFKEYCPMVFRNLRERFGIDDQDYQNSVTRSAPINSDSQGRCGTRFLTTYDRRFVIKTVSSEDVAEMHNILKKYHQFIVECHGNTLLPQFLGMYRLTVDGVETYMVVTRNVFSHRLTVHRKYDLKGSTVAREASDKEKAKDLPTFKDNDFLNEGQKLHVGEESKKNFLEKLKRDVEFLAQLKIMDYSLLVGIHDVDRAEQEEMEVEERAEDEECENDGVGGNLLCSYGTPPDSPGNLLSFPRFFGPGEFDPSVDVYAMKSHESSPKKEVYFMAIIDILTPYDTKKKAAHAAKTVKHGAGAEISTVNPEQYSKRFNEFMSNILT
Phosphatidylinositol 4-phosphate 3-kinase C2 domain-containing subunit beta (Homo sapiens), sequence (O00750 whole entry, the tested form may be a part, canonical isoform): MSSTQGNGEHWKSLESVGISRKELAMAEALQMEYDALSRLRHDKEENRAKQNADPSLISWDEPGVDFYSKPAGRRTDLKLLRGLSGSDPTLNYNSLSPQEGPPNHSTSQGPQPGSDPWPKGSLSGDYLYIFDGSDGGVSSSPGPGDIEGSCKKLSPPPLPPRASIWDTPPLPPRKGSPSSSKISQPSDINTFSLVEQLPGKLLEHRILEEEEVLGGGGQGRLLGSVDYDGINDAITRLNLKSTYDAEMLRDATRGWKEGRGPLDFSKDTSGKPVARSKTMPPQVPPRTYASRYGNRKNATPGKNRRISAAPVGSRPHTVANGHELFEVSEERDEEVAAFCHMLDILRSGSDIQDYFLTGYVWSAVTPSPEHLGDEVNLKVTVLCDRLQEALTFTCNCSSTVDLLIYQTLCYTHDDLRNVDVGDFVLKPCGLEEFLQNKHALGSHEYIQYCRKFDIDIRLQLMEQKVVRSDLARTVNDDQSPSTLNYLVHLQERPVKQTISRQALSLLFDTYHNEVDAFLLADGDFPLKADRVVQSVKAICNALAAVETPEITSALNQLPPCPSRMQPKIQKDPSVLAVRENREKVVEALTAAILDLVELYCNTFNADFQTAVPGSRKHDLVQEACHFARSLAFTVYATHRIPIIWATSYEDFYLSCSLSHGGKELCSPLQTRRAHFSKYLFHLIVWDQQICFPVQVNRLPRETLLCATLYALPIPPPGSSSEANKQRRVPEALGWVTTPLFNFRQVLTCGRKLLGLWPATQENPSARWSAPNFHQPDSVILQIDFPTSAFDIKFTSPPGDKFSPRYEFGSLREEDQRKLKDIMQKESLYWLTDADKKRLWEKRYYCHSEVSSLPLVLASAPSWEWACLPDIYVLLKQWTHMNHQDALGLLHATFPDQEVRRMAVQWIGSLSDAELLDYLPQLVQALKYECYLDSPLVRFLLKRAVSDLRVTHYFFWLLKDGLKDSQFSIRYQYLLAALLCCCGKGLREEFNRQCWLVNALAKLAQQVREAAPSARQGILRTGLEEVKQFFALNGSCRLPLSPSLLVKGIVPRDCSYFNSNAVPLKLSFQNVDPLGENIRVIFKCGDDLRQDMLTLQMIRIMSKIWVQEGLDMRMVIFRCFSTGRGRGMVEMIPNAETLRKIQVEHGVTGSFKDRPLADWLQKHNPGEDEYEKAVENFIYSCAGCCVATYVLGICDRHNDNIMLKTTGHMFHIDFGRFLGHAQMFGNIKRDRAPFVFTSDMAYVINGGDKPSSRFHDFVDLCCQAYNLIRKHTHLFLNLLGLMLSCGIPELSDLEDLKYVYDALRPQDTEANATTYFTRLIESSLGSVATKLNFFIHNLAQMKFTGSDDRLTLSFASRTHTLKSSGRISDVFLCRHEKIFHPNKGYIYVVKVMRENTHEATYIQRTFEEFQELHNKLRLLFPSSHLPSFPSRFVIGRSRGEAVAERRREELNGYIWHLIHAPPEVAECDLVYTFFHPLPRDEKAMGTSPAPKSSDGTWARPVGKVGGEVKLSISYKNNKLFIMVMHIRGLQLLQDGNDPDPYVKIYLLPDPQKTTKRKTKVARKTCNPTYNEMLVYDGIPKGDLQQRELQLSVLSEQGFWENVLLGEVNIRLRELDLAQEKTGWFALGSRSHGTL
Testis-specific serine/threonine-protein kinase 1 (Homo sapiens), sequence (Q9BXA7 whole entry): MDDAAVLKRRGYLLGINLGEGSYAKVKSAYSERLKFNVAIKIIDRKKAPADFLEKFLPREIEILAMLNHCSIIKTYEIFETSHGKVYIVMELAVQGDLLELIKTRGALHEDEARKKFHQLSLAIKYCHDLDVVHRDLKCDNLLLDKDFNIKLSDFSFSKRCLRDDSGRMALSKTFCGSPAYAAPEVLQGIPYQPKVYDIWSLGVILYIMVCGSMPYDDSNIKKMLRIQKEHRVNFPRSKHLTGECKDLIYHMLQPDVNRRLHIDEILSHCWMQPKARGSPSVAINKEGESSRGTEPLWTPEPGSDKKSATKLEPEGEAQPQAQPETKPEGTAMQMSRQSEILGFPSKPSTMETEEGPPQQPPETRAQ
Serine/threonine-protein kinase MAK (Homo sapiens), sequence (P20794 whole entry): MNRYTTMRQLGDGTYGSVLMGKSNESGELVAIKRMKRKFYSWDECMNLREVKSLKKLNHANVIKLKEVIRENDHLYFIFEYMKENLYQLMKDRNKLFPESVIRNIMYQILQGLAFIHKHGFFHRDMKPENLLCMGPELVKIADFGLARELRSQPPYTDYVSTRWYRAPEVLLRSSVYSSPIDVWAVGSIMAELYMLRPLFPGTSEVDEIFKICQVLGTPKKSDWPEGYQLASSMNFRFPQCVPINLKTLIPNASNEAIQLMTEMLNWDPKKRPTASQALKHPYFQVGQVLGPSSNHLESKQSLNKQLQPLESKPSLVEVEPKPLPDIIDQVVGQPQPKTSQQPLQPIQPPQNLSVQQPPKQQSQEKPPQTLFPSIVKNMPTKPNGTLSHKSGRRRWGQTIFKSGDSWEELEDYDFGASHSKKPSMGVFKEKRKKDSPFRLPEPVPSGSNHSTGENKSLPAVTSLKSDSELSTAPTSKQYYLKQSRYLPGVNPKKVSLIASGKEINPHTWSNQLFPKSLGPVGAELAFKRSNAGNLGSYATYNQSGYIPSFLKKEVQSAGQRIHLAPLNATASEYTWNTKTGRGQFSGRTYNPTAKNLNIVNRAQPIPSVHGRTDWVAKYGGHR
D(1B) dopamine receptor (Homo sapiens), sequence (P21918 whole entry): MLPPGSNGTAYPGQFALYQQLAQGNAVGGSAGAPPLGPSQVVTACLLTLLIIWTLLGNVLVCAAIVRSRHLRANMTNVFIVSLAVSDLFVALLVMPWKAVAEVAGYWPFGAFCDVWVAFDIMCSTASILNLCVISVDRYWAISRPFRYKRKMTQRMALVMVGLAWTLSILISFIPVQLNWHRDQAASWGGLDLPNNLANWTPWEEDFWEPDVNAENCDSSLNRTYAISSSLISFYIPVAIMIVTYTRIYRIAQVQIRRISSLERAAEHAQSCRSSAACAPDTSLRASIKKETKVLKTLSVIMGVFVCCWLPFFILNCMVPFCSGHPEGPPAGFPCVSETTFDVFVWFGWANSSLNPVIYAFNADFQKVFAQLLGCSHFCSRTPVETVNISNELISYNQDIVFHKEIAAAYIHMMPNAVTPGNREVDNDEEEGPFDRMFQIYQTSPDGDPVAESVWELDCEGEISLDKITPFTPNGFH
Kappa-type opioid receptor (Homo sapiens), sequence (P41145 whole entry): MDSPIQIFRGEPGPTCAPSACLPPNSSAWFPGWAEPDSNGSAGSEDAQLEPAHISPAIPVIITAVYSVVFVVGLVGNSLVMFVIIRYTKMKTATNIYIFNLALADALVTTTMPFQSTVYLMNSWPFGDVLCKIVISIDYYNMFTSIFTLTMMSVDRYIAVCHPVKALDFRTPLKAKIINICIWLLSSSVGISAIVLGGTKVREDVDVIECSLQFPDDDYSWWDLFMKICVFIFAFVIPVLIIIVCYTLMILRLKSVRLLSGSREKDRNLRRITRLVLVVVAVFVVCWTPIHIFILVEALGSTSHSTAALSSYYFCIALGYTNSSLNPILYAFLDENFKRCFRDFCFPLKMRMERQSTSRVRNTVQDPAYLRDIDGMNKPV

CN(C)C(=O)Cn1cc(-c2nc(C3(c4ccc(-c5cnc(N)nc5)cc4)CC3)no2)cn1 [BI 0153]
inactive: residual activity [1] 87% | residual activity [2] 100% | residual activity [3] 90% | residual activity [4] 100% | inhibition [5] 22.8% | residual activity [6] 100% | residual activity [7] 93% | residual activity [8] 100% | residual activity [9] 71% | residual activity [10] 100% | residual activity [11] 88% | residual activity [12] 87% | residual activity [13] 100% | residual activity [14] 88% | residual activity [15] 95% | residual activity [16] 100% | residual activity [17] 100% | residual activity [18] 79% | inhibition [19] 16.2% | residual activity [20] 75% | residual activity [21] 100% | residual activity [22] 85% | residual activity [23] 76%

CN(C)C(=O)Cn1cc(-c2nc([C@@](C)(c3ccc(-c4cnc(N)nc4)cc3)C3CC3)no2)cn1 [BI 665915]
inactive: residual activity [1] 100% | residual activity [2] 100% | residual activity [3] 100% | residual activity [4] 100% | inhibition [5] 9.24% | residual activity [6] 100% | residual activity [7] 100% | residual activity [8] 98% | residual activity [9] 100% | residual activity [10] 100% | residual activity [11] 100% | residual activity [12] 100% | residual activity [13] 81% | residual activity [14] 82% | residual activity [15] 100% | residual activity [16] 100% | residual activity [17] 93% | residual activity [18] 94% | inhibition [19] 33.9% | residual activity [20] 76% | residual activity [21] 96% | residual activity [22] 81% | residual activity [23] 79%
